Source: article PMC10388363, “Novel 1,4-Dihydropyridines as Specific Binders and Activators of SIRT3 Impair Cell Viability and Clonogenicity and Downregulate Hypoxia-Induced Targets in Cancer Cells” (Journal of Medicinal Chemistry, 2023)
Read-outs that look alike come from different tables or passages of the source.

Tests used:
[1] = test system: HIF-1α, EPAS-1, and CA-IX protein expression in CAL-62; assay: Western blot of HIF-1α, EPAS-1 and CA-IX in CAL-62 cells under hypoxia; assay type: cell-based; conditions: CAL-62, 50 μM, 48 h, hypoxia
Method: (§1) Based on these findings, we decided to assess the ability of the SIRT3 activators 3a–d to impair HIF-1α, EPAS-1, and CA-IX protein expression in CAL-62 (Figure 10A–F) and MDA-MB-231 (Figure 11A–F) cell lines treated with the compounds at 50 μM for 48 h and under hypoxia conditions.
(§2) Breast cancer cell line MDA-MB-231, anaplastic thyroid cancer cell line CAL-62 and human keratinocytes HaCaT were purchased from ATCC and were cultured in RPMI 1640 medium (R0883 Sigma Aldrich-MERCK) (MDA-MB-231 and CAL-62) or DMEM medium (11965092, Gibco) supplemented with 10% fetal bovine serum (Sigma-Aldrich-MERCK, F9665), 2 mM glutamine (G7513; Sigma-Aldrich-MERCK), 100 units/mL penicillin and 0.1 mg/mL streptomycin (P0781; Sigma-Aldrich-MERCK). Adherent cells were detached by Trypsin–EDTA solution (TA049; Sigma-Aldrich-MERCK). Cells were maintained at 37 °C in humidified incubator with 5% CO2. Cells were treated with […] (CoCl2) (Merck; C8661) dissolved in distilled, sterile water for 24 h to induce hypoxia (200 μM). Hypoxic and normoxic cells were also treated with 10/50 μM of the indicated compounds (dissolved in DMSO) for 48 h, maintaining the CoCl2 in the culture medium for hypoxic conditions. SIRT3 inhibitor 3-TYP was dissolved in DMSO and added to a final concentration of 1 μM for 24 and/or 48 h.
(§3) The following antibodies were used in this study: ACTB (Merck; A5316), HIF1-α (Cell Signaling; 14179), HIF2/EPAS-1 (Santa Cruz Biotechnology sc-13596), HXKII (Santa Cruz Biotechnology sc-6521), CAIX (Novus Biotechnology NB100-417), SIRT3 (Cell Signaling; 2627S), MnSOD (Abcam ab13533), MnSOD K68 (Abcam ab137037), MnSOD K122 (Abcam ab214675), peroxidase-conjugated AffiniPure Goat Anti-Rabbit IgG (H + L) (Jackson ImmunoResearch; 111-035-003), and peroxidase-conjugated AffiniPure Goat Anti-Mouse IgG (H + L) (Jackson ImmunoResearch; 115-035-062).
(§4) Treated and untreated cells were collected and centrifuged at 3000 rpm for 5 min. After removing the supernatant, cells were lysed in 70 μL of lysis buffer containing: 50 mM Tris-Cl (Merck; 93352), 250 mM sodium chloride (NaCl, Merck; S7653), 5 mM ethylenediaminetetraacetic acid (EDTA; Merck; E6758), 0.1% Triton X-100 and 0.1 mM dithiothreitol (Merck; D9163) plus 1 mM phenylmethylsulfonyl fluoride (PMSF, Merck; 93482), protease inhibitor cocktail (PI; Merck; P8340), 1 mM sodium orthovanadate (NA3VO4, Merck; S6508), and 10 mM sodium fluoride (NaF, Merck; 201154) (lysis buffer). After 30 min on ice, samples were centrifuged at 13,000 rpm for 10 min at 4 °C, and the supernatants collected. Protein concentration was determined by the Bradford assay (Bio-Rad; 500-0205). The equivalent of 15 or 50 μg of protein was boiled for 5 min, electrophoresed onto denaturing SDS-PAGE gel, and transferred onto a […] nitrocellulose membrane (Bio-Rad; 162-0115). After blocking with 5% milk, membranes were incubated with the appropriate primary antibody overnight. The next day, after three washes with 0.1% Tween 20 (Merck; P9416) in PBS (PBST) for 30 min at rt, membranes were incubated with the appropriate secondary antibody for 1 h at rt. After three more washes in PBST, the detection of the relevant protein was assessed by enhanced chemiluminescence (Lite Ablot TURBO, Euro-Clone; EMP012001). Densitometric analysis of the bands, relative to ACTB, was performed using ImageJ Software v1.51 (NIH, Bethesda, MD, USA).

[2] = test system: SNAIL, SLUG, ZEB1, COL1A2, MMP2/9 expression in MDA-MB-231; assay: qRT-PCR of EMT master regulator and ECM genes in MDA-MB-231 cells; assay type: cell-based, human; conditions: 48 h; for EMT master regulator and ECM gene expression: MDA-MB-231, 10 μM; for SLUG expression / SNAIL, ZEB1, COLLAGEN, and MMP2/9 gene expression / SLUG gene expression / SNAIL, COL1A2, and MMP2/9 expression levels: MDA-MB-231, 50 μM; for SLUG expression / SNAIL, ZEB1, COLLAGEN, and MMP2/9 gene expression: hypoxic conditions (CoCl2); for SLUG gene expression / SNAIL, COL1A2, and MMP2/9 expression levels: normoxia
Method: Afterward, based on the double localization described for SIRT3, which was primarily found into the mitochondria but translocated into the nucleus in stressful conditions,[75] the effects of SIRT3 activators on gene expression regulation were evaluated in MDA-MB-231 cells.
Considering the previously described involvement of hypoxia in EMT induction,[78] we extended our biological study by analyzing the effects of SIRT3 activators on gene expression regulation under hypoxic conditions. Hypoxia induction of EMT was verified by gene expression analysis (upregulation of SNAIL, ZEB1, COLLAGEN, MMPs, and SLUG) after 72 h of treatment with CoCl2. In these experimental conditions, we verified the effectiveness of the previously tested SIRT3 activators 3c and 3d (50 μM, 48 h) in reducing EMT genes expression.
RNAs were extracted by ReliaPrep RNA tissue miniprep system (Promega, Madison, WI, USA) and reverse transcribed with an iScriptTM c-DNA synthesis kit (Bio-Rad Laboratories Inc., Hercules, CA, USA). Real-time (RT-qPCR) analyses were performed on cDNAs that were amplified by the qPCR reaction using GoTaq qPCR Master Mix (Promega, Madison, WI, USA). Relative amounts obtained with the 2(−ΔCt) method were normalized with respect to the housekeeping gene human L32. Statistical analysis was performed with GraphPad Prism 8, and differences in gene expression were considered significant with a p-value <0.05.

[3] = test system: HIF-1α, EPAS-1, and CA-IX protein expression in MDA-MB-231; assay: Western blot of HIF-1α, EPAS-1 and CA-IX in MDA-MB-231 cells under hypoxia; assay type: cell-based, human; conditions: MDA-MB-231, 50 μM, 48 h, hypoxia
Method: as §1, §2, §3, §4

MDA-MB-231 cells = assay: Cell viability / cell death, trypan blue exclusion, MDA-MB-231; assay type: cell-based, human; conditions: for IC50: MDA-MB-231, 48 h, read-out: IC50 reducing cell viability
Method: Afterward, the selected compounds 3a–d were assayed at 50 μM for 24 and 48 h in CAL-62 and MDA-MB-231 cells to assess their ability to impair the cell viability and colony formation in either normoxia or hypoxia-induced condition, the latter obtained by adding a 200 μM cobalt chloride solution, as described in previous reports[69] (Figure 8). Most cancer cells, mainly solid types, are known to have an altered metabolism due to hypoxia, a non-physiological level of oxygen tension, which contributes to therapy resistance by causing cellular quiescence.[70] Moreover, hypoxic cancer cells can induce several factors that lead to cell proliferation and colony formation.[71]
as §2
Cell viability was assessed by the trypan blue exclusion assay. At the end of treatments, cells were harvested and stained with 0,4% trypan blue (Merck; T8154). The cell suspension was applied to a hemocytometer and counted with phase contrast microscopy (NIKON EclipseTE2000U, Nikon Netherlands, Amsterdam, The Netherlands).

[4] = MDA-MB-231, 50 μM, 48 h, hypoxia
[5] = MDA-MB-231, 50 μM, 48 h, normoxia

Row | Compound | EPAS-1 protein expression [1] | EMT master regulator and ECM gene expression [2] | SLUG expression [2] | SNAIL, ZEB1, COLLAGEN, and MMP2/9 gene expression [2] | SLUG gene expression [2] | SNAIL, COL1A2, and MMP2/9 expression levels [2] | EPAS-1 protein levels [3] | HIF-1α protein levels [3] | CA-IX protein expression [1] | HIF-1α protein expression [1] | IC50 (MDA-MB-231 cells; Homo sapiens, hypoxia) | IC50 (MDA-MB-231 cells; Homo sapiens, normoxia) | viability at 10 µM (MDA-MB-231 cells; Homo sapiens, MDA-MB-231, 10 μM, 48 h, read-out: Cell viability (%) T48) | reduction in cell viability (%) at 50 µM (MDA-MB-231 cells; Homo sapiens, MDA-MB-231, 50 μM, 24 h, normoxia, read-out: viability impairment) | Cell death (%) T48 (MDA-MB-231 cells; MDA-MB-231, 10 μM, 48 h) | reduction viability (MDA-MB-231 cells; [4]) | reduction viability (MDA-MB-231 cells; [5]) | CA-IX protein expression [3]
1 | CCOC(=O)C1=CN(C(=O)c2ccc(OC)c(OC)c2)C=C(C(=O)OCC)C1c1ccccc1 [Compound 3c, Diethyl 1-(3,4-dimethoxybenzoyl)-4-phenyl-1,4-dihydropyridine-3,5-dicarboxylate] | downregulated | effective even at 10 μM | affected | impair | not significantly affected | reduce | significantly reduced | significantly reduced | – | – | – | – | – | – | – | – | – | –
2 | CCOC(=O)C1=CN(C(=O)c2cc(OC)cc(OC)c2)C=C(C(=O)OCC)C1c1ccccc1 [Compound 3d, Diethyl 1-(3,5-dimethoxybenzoyl)-4-phenyl-1,4-dihydropyridine-3,5-dicarboxylate] | downregulated | effective even at 10 μM | affected | impair | not significantly affected | reduce | significantly reduced | significantly reduced | significantly downregulated | decrease | 10.6 µM | 3.64 µM | 36.3% | 34% | 63,6% | 75% | 75% | most potent
3 | CCOC(=O)C1=CN(C(=O)c2cccc(OC)c2)C=C(C(=O)OCC)C1c1ccccc1 [Compound 3a, Diethyl 1-(3-methoxybenzoyl)-4-phenyl-1,4-dihydropyridine-3,5-dicarboxylate] | – | – | – | – | – | – | – | – | significantly downregulated | – | – | – | – | – | – | 11% | 60% | –
